# Measurements: patent US10576078B2 (Council of Scientific & Industrial Research, priority 2017, dated 2020)
# How the values were obtained:
# [1] = test system: Peripheral blood mononuclear cells from control donors; assay: Apoptosis by annexin V/PI staining in PBMC from control donors; type: cell-based, Human; conditions: 5 μM, 48 h
# [2] = test system: K562 cells; assay: Megakaryocytic differentiation in K562 cells (May-Grünwald-Giemsa staining, CD61/CD41 flow cytometry); type: cell-based, Human
# Procedure: K562 cells were treated with CFZ for 120 h and May-Grünwald-Giemsa staining followed by light microscopy was used to assess cellular morphology. […] PMA was used as appositive control. Representative photomicrographs from two independent experiments (8 fields per treatment group) are shown.
# FIG. 3B-3C in particular show CFZ induces megakaryocytic surface markers CD61 (early) and CD41 (late) in K562 cells. K562 cells were treated as indicated for 72 h (Phorbol myristate acetate (PMA) was used as positive control) and then were stained with IgG isotype control or CD61 (B) & CD41 (C) IgG antibodies and were analyzed by flowcytometry (n=3). ***p<0.0001. PMA was used as a positive control.
# May-Grünwald Giemsa Staining: To assess the changes in nuclear morphology, cells treated with vehicle (0.1% DMSO), CFZ (indicated concentrations in FIG. 3A) or PMA (positive control; 10 ng/ml) for 120 h (FIG. 3A). Cells were then washed with phosphate buffer saline (PBS) and were attached to glass slides by cytospin. These slides were stained with Giemsa and May-Grünwald solution (Sigma) as per manufacturer's instruction. Cells were then visualized by microscopy.
# Differentiation analyses by flow cytometry: K562 (FIG. 3B-C) or primary CP-CML cells (FIG. 3D-E) were treated with vehicle, CFZ and PMA as indicated in the respective figures and figure descriptions for 72 hrs. Cells were then harvested, washed, and centrifuged, resuspended in 100 μl PBS and were stained with CD41-FITC or CD61-PE antibodies for 30 min at room temperature (in dark). After incubation, the cells were washed and resuspended in 300 μl PBS and were analyzed on a FACSCalibur flow cytometer.
# [3] = cited from earlier work
# [4] = test system: stat5b, HIF-1α, HIF-2α and CITED2 transcripts in CD34+ cells from imatinib-resistant patients; assay: QRT-PCR of stem cell factors in CD34+ CML cells; type: cell-based, Human
# Procedure: CD34^+ cells isolated from IMT-resistant patients (n=3) were treated with CFZ (5 μM, 24 h) and stat5b, HIF-1α, HIF-2α and CITED2 transcripts were assessed by QRT-PCR (in triplicates). ***p<0.0001.
# CD34+ cells were isolated from imatinib-resistant CP-CML cells as described above. Cells were then treated with vehicle (V; 0.1% DMSO) or CFZ (5 μM) for 24 h. Total RNA was isolated from CD34+ cells as described above, using TRI reagent. 2 μg total RNA was reverse transcribed using High-Capacity cDNA Reverse Transcription Kit (Applied Biosystems; Foster City, Calif.). Quantitative real-time PCRs (QRT-PCR) were performed on a LightCycler 480 System (Roche, Indianapolis, Ind.) using VeriQuest SYBR Green qPCR Master Mix (Affymetrix, Thermo Scientific). The QRT-PCR primers were designed using Universal ProbeLibrary Assay Design Center (Roche Life Science). Primer sequences (5′-3′) hSTAT5B-For-TGAAG […], hSTAT5B-Rev […] ACTG, hHIF-1α-For-[…], hHIF-1α-Rev-[…], hHIF-2α-For-[…], hHIF-2α-Rev-[…], hCITED-2-For-[…], hCITED-2-Rev-[…]. The data were analyzed by ΔΔCT method with GAPDH (GAPDH-For-[…], GAPDH-Rev-GCC […]) used as an internal control (FIG. 2F).
# [5] = test system: CrkL; assay: Immunoblotting of CrkL phosphorylation in K562 cells; type: cell-based, Human; conditions: 30 min, Y207
# Procedure: K562 cells were treated as indicated for 30 min and stat5 phosphorylation at Y694 or CrkL phosphorylation at Y207 were assessed by immunoblotting. Total stat5 or β-actin expression was assessed to ensure equal loading. Pio was used as a negative control and IMT was used as a positive control. Data is one representative of 3 independent experiments.
# K562 cells were cultured in 6 well plates and treated as indicated in figures or descriptions of FIG. 1E, FIG. 1G and FIG. 2D-E. Cells were then homogenized in lysis buffer containing 50 mM Tris-HCl, pH 7.5, 150 mM NaCl, 1% NP40, 5 mM EDTA, 1 mM DTT, protease and phosphatase inhibitor cocktails (Sigma) and incubated on ice for 30 min followed by 5 cycles of freeze-thaw. Samples were then centrifuged at 14000 rpm at 4° C. for 30 min. Supernatants were then quantified by Bichinchonic acid (Sigma)-based protein estimation. Equal amount of proteins were solubilized in Laemmli buffer, and were resolved by 10%-12% SDS PAGE and transferred onto PVDF membranes (Millipore; Billerica, Mass.). Membranes were blocked in 5% (w/v) non-fat dried milk powder (Sigma) in PBS containing 0.2% Tween 20 (Sigma). […] Immunoreactivity was detected using a chemiluminescent HRP Substrate (Millipore) in a LAS 4010 Chemi-doc Imager (GE Healthcare, Little Chalfont, UK). […]
# [6] = CD34+ cells from imatinib-resistant patients, CFZ 5 μM, 24 h
structure (smiles),measurement,setting,value
"CC(C)/N=c1\cc2n(-c3ccc(Cl)cc3)c3ccccc3nc-2cc1Nc1ccc(Cl)cc1 [CFZ, Clofazimine]",apoptosis in cells from control donors,[1],didn't affect
same,megakaryocytic differentiation phenotype,"[2]; 1 μM, 120 h, May-Grünwald-Giemsa staining",induced
same,megakaryocytic surface marker CD41,[2]; 72 h,increased
same,megakaryocytic surface marker CD61,[2]; 72 h,increased
same,average human plasma level of CFZ,[3]; following daily oral administration of 100 mg CFZ,0.7 mg/L
same,human plasma Cmax of CFZ,[3]; human plasma,400 to 4000 ng/mL
same,CITED2 transcript,[4]; [6],reduced
same,HIF-1α transcript,[4]; [6],reduced
same,HIF-2α transcript,[4]; [6],reduced
same,stat5b transcript,[4]; [6],reduced
same,stat5 mRNA expression,[4]; FIG. 2F,suppressed
same,CrkL phosphorylation,[5],did not alter
